{"source": "patent US8486381B2", "about": "“Methods of modulating intestinal fluid balance” (Amgen Inc., priority 2005, dated 2013)", "key": {"cyclic AMP": {"test_system": "cyclic AMP", "experiment": "Secretagogue-stimulated cyclic AMP accumulation in colonic crypt cell suspensions", "format": "cell-based"}, "cyclic GMP": {"test_system": "cyclic GMP", "experiment": "Secretagogue-stimulated cyclic GMP accumulation in colonic crypt cell suspensions", "format": "cell-based", "settings": "IBMX 1 mM"}, "rat colonic crypts": {"test_system": "rat colonic crypts", "experiment": "Absorptive fluid movement (netJv with secretion inhibited) in perfused rat colonic crypts", "format": "cell-based"}, "[1]": {"test_system": "basolateral Cl^− entry into colonic crypt cells via NKCCl", "experiment": "Cell Cl^− influx measurements (MQAE fluorescence) in colonic crypts", "format": "cell-based, rat", "protocol": "Cl^− Measurements. Cell Cl^− influx measurements (Egan, M. E. et al. Nat. […] Molecular Probes]. After dye loading, crypts were incubated in a Cl^− free HEPES buffer until stable high baseline fluorescence intensity was achieved. Rates of cell Cl^− influx were monitored as rates of reductions in arbitrary MQAE fluorescent units (ΔAFU/min; Ex: 346 nm; EM: 460 nm)."}, "BALB/c mice [2]": {"test_system": "BALB/c mice", "settings": "mouse, in vivo"}, "BALB/c mice [3]": {"test_system": "BALB/c mice", "settings": "mouse, in vivo", "remark": "listed apart in the source"}, "[4]": {"test_system": "apical NHE (Na^+/H^+ exchanger)", "experiment": "NHE activity: Na^+-dependent proton extrusion from colonocytes", "format": "cell-based, rat", "settings": "forskolin present", "from_the_text": "Cyclic nucleotide-dependent fluid loss in secretory […] occurs through reduction in absorptive, and increases in secretory, processes. Lucas, M. L. J. Appl. Microbiol. 90, 7-26, 2001; Golin-Bisello, F. et al. Am. J. Cell. Physiol. 289, […]-[…], 2005. Colonic epithelial crypts provide a model for understanding intestinal fluid transport as they simultaneously absorb and secrete fluid with the direction of net fluid movement (^netJv) depending on the relative magnitudes of these two processes. A major component of fluid absorption in the colon is mediated by parallel Na^+/H^+ (sodium-hydrogen exchanger, NHE) and Cl^-/HCO3^- exchange located at the apical plasma membranes. Kunzelman, K. et al. Physiol. Rev. 82, 245-289, 2002; Donowith, M. et al. Annu. Rev. Physiol. 48, 135-150, 1986. Cyclic nucleotides reduce this Na^+-dependent fluid absorption by inhibiting NHE activity. […] This basal fluid was likely due to the low levels of cell cyclic nucleotides that remain even in the absence of secretagogues. […] To examine if this latter effect of CaSR agonists on fluid absorption resulted from enhanced apical NHE activity, the effects of Ca^2+ on Na^+-dependent proton extrusion from colonocytes were assessed in the presence of forskolin. […] Cell acid loading was accomplished by exposure to NH4Cl and Na^+-dependent cell pH recovery following removal of NH4Cl was assessed as an index of Na^+/H^+ activity. […]"}, "[5]": {"test_system": "colonic crypts from Casr^−/−:Gcm2^−/− mice", "experiment": "Net Jv in perfused colonic crypts from CaSR null mice", "format": "cell-based", "settings": "for Effect on net fluid secretion induced by Guanylin and CTX: Casr^−/−:Gcm2^−/−"}, "[6]": {"test_system": "isolated rat colonic crypts", "experiment": "Net fluid movement (Jv) in in vitro perfused rat colonic crypts", "format": "cell-based", "settings": "for EC50: Rattus norvegicus, read-out: EC50, attenuation of forskolin-induced net fluid secretion, forskolin 10 μM, 0.1 mM Ca^2+; for Effect on net fluid secretion in presence of forskolin and PLC inhibitor U73122: U73122 10 μM, 0.1 mM calcium"}, "[7]": {"test_system": "proximal and distal colon crypts", "format": "cell-based, Sprague-Dawley rats"}, "[8]": {"test_system": "colonic crypts from Casr^+/+:Gcm2^+/+ mice", "experiment": "Net Jv in perfused colonic crypts from wild type mice", "format": "cell-based", "settings": "for Effect on net fluid secretion induced by Guanylin and CTX: Casr^+/+:Gcm2^+/+"}, "[9]": {"test_system": "proximal or distal colon segments", "format": "cell-based, Sprague-Dawley rats"}, "[10]": {"settings": "extracellular calcium raised from 0.1 mM to 2 mM"}}, "note": "Entries after “also recorded” stand apart in the source; their conditions may differ. Where a name gives a salt, the structure may show the parent alone. Read-outs that look alike come from different tables or passages of the source."}
{"compound": "CC(C)Cn1c(=O)n(C)c(=O)c2[nH]cnc21", "note": "[IBMX, 3-Isobutyl-1-Methylxanthine]", "values": [{"measurement": "Effect on attenuation of cyclic AMP production by 2.0 mM Ca^2+", "setting": "cyclic AMP; IBMX added (1 mM per method)", "value": "reverses this effect"}, {"measurement": "Effect on attenuation of cyclic GMP production by 2.0 mM Ca^2+", "setting": "cyclic GMP", "value": "reverses this effect"}]}
{"compound": "CCCCNc1cc(C(=O)O)cc(S(N)(=O)=O)c1Oc1ccccc1", "note": "[bumetanide]", "values": [{"measurement": "netJv in the absence of secretagogues", "setting": "rat colonic crypts; added to basolateral bath", "value": "increased the positive or absorptive ^netJv"}, {"measurement": "Effect on forskolin-stimulated increase in cell Cl^−", "setting": "[1]; 100 μM basolateral", "value": "abolished"}]}
{"compound": "Cn1c(NC[C@@H](N)Cc2ccccc2)nc(-c2ccncc2)c(-c2ccc3ccccc3c2)c1=O", "note": "[Compound C, 2-(((2S)-2-amino-3-phenylpropyl)amino)-3-methyl-5-(2-naphthalenyl)-6-(4-pyridinyl)-4(3H)-pyrimidinone]", "values": [{"measurement": "Mortality", "setting": "BALB/c mice [2]; female, BALB/c", "value": 100, "unit": "%"}]}
{"compound": "COc1ccc(CNC(C)c2ccccc2)cc1-c1ccc(C(F)(F)F)cc1", "note": "(stereo not shown) [Compound B, N-((6-(methyloxy)-4′-(trifluoromethyl)-1,1′-biphenyl-3-yl)methyl)-1-phenylethanamine]", "values": [{"measurement": "Cholera toxin-induced gastrointestinal fluid accumulation", "setting": "BALB/c mice [3]", "value": "statistically significant reduction"}, {"measurement": "Mortality 24 hrs (moribund)", "setting": "BALB/c mice [2]", "value": "2/5"}, {"measurement": "Volume of fluid accumulating in the small intestine", "setting": "BALB/c mice [2]", "value": "dose-dependent reduction"}]}
{"compound": "COc1cccc([C@@H](C)NCCCc2ccccc2Cl)c1.Cl", "note": "[Compound A, N-(3-[2-chlorophenyl]-propyl)-R-α-methyl-3-methoxybenzylamine HCl]", "values": [{"measurement": "Increase in NHE activity", "setting": "[4]; Compound A added to the 2 mM Ca^2+-containing bath", "value": 12, "unit": "fold"}, {"measurement": "Effect on net fluid secretion induced by Guanylin and CTX", "setting": "[5]; 100 nM, 0.1 mM calcium", "value": "did not reverse net fluid secretion"}, {"measurement": "Effect on cAMP-mediated reduction in fluid absorption", "setting": "rat colonic crypts; added to basolateral bath in the presence of 0.5 mM calcium", "value": "significantly abrogated"}, {"measurement": "Effect on rate of forskolin-stimulated Cl^− entry", "setting": "[1]; 100 nM in basolateral fluid", "value": "significantly reduced"}, {"measurement": "EC50", "setting": "[6]; compound in bath", "value": 0.0051, "unit": "nM"}, {"measurement": "EC50", "setting": "[6]; compound in lumen", "value": 0.0234, "unit": "nM"}, {"measurement": "Effect on net fluid secretion in presence of forskolin and PLC inhibitor U73122", "setting": "[6]; compound added to both luminal and bath", "value": "did not completely reverse net fluid secretion"}, {"measurement": "Effect on net fluid secretion in presence of forskolin and PLC inhibitor U73122", "setting": "[6]; compound added to lumen or bath", "value": "had no significant effect on reversing net fluid secretion"}, {"measurement": "Effect on forskolin-induced net fluid secretion in presence of TTX", "setting": "[7]", "value": "attenuated forskolin-induced net fluid secretion"}, {"measurement": "Effect on net fluid secretion induced by Guanylin and CTX", "setting": "[8]; 100 nM, 0.1 mM calcium", "value": "effectively reversed net fluid secretion"}]}
{"compound": "COc1cccc(C(C)NCCCc2ccccc2Cl)c1", "note": "(stereo not drawn) [Compound A, S-stereoisomer, N-(3-[2-chlorophenyl]-propyl)-α-methyl-3-methoxybenzylamine HCl]", "values": [{"measurement": "EC50", "setting": "[6]; compound in bath", "value": 0.619, "unit": "nM"}, {"measurement": "EC50", "setting": "[6]; compound in lumen", "value": 0.756, "unit": "nM"}]}
{"compound": "Guanylin", "values": [{"measurement": "Net fluid movement (Jv) on exposure to secretagogue", "setting": "[5]", "value": "induced net fluid secretion"}, {"measurement": "Net fluid movement (Jv) on exposure to secretagogue", "setting": "[6]", "value": "induced net fluid secretion"}, {"measurement": "Net fluid movement (Jv) on exposure to secretagogue", "setting": "[8]", "value": "induced net fluid secretion"}]}
{"compound": "C=C[C@@]1(C)CC(=O)[C@]2(O)[C@@]3(C)[C@@H](O)CCC(C)(C)[C@@H]3[C@H](O)[C@H](OC(C)=O)[C@@]2(C)O1", "note": "[forskolin]", "values": [{"measurement": "Mean Jv, distal colonic crypts", "setting": "[7]", "value": "−0.33±0.01", "unit": "nL/min/mm"}, {"measurement": "Mean Jv, proximal colonic crypts", "setting": "[7]", "value": "−0.32±0.02", "unit": "nL/min/mm"}]}
{"compound": "CCCC(=O)Nc1ncnc2c1ncn2[C@@H]1O[C@@H]2COP(=O)(O)O[C@H]2[C@H]1OC(=O)CCC", "note": "[db-cyclic AMP, dibutyryl-cAMP]", "values": [{"measurement": "Absorptive fluid movement", "setting": "rat colonic crypts; in the presence of bumetanide", "value": "substantially reduced"}]}
{"compound": "NC1=N[C@H](O)[C@H]2[C@H]3O[C@]4(O)O[C@@H]([C@@H](O)[C@@]2(N1)[C@@H]4O)[C@]3(O)CO", "note": "[TTX, tetrodotoxin]", "values": [{"measurement": "Effect on ability of calcimimetics to reverse forskolin-stimulated increase in Isc", "setting": "[9]", "value": "abolished"}, {"measurement": "Effect on forskolin-induced net fluid secretion", "setting": "[7]", "value": "did not change the ability of forskolin to induce a net fluid secretion"}]}
{"compound": "[Ca+2]", "note": "[Ca^2+]", "values": [{"measurement": "Increase in NHE activity", "setting": "[4]; basolateral bath Ca^2+ raised from 0.1 to 2 mM", "value": 8, "unit": "fold"}, {"measurement": "Effect on net fluid secretion induced by Guanylin and CTX", "setting": "[5]; [10]", "value": "did not"}, {"measurement": "Effect on cAMP-mediated reduction in fluid absorption", "setting": "rat colonic crypts; extracellular Ca^2+ increased to 2 mM", "value": "significantly abrogated"}, {"measurement": "Effect on forskolin or cholera toxin induced cyclic AMP production", "setting": "cyclic AMP", "value": "attenuates"}, {"measurement": "Effect on Cl^− entry via NKCCl in the presence of CTX", "setting": "[1]; calcium increased from 0.1 to 2 mM", "value": "inhibited Cl^− entry"}, {"measurement": "Effect on net fluid secretion induced by Guanylin or STa", "setting": "[6]", "value": "reversed net fluid secretion"}, {"measurement": "Effect on net fluid secretion induced by forskolin or cholera toxin", "setting": "[6]", "value": "reversed net fluid secretion"}, {"measurement": "Effect on net fluid secretion induced by Guanylin and CTX", "setting": "[8]; [10]", "value": "reversed net fluid secretion"}]}
{"compound": "cholera toxin", "values": [{"measurement": "Net fluid movement (Jv) on exposure to secretagogue", "setting": "[5]", "value": "induced net fluid secretion"}, {"measurement": "cAMP production on exposure to secretagogue", "setting": "cyclic AMP", "value": "induce cAMP production; also recorded: induce cyclic AMP production"}, {"measurement": "Net fluid movement (Jv) on exposure to secretagogue", "setting": "[6]", "value": "induced net fluid secretion"}, {"measurement": "Net fluid movement (Jv) on exposure to secretagogue", "setting": "[8]", "value": "induced net fluid secretion"}]}
